According to patent US20250074910A1, “MENIN INHIBITOR AND USE THEREOF” (HITGEN INC., priority 2021, published 2025):

How the values were obtained:
[1] = Pharmacokinetics test in mouse; type: in vivo, ICR mice; conditions: mice, p.o. 10 mg/kg; for AUC(0-t) / half-life / Cmax: male, ICR, mouse, plasma, po, 10 mg/kg; for Cmax: read-out: Cmax; for F, %: 1 mg/kg for intravenous injection
How it was run: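 Fasted male ICR mice dosed with compound in saline with 1.5 eq HCl, 1 mg/kg i.v. or 10 mg/kg oral gavage (6 mice each). Plasma sampled 5 min–24 h, measured by LC-MS/MS; t½, Cmax, AUC, CL and F% by non-compartmental analysis, mean±SD.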

[2] = Stability in dog liver microsomes; type: in vitro ADME; conditions: dog, liver microsomes, pH 7.4, Dog; 0.5 mg/mL microsomal protein, 1.00 μM compound, NADPH; read-out: Half life T1/2, dog liver microsomes
How it was run: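 Compound at 1.00 μM incubated at 37° C with 0.5 mg/mL liver microsomal protein and 2.00 mM NADPH in 100 mM phosphate buffer pH 7.4, sampled 0–60 min with acetonitrile quench. Parent remaining by LC-MS/MS; T½ from ln-remaining slope, CLint scaled by microsomal concentration and conversion factor.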

OCI-AML3 = experiment: Cell proliferation inhibition (CellTiter-Glo), OCI-AML3 (NPM1 mutation); type: cell-based; conditions: Homo sapiens, OCI-AML-3, 168 h, OCI-AML3 cells
How it was run: (§1)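 Cells plated at 5,000-20,000/well, treated with compound at 1 nM to 10 μM final, cultured 72-168 h at 37 °C, 5% CO2. Viability measured by CellTiter-Glo luminescence after 10 min at room temperature; IC50 from curve fitting.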

MOLM-13 = experiment: Cell proliferation inhibition (CellTiter-Glo), MOLM-13; type: cell-based; conditions: Homo sapiens, MOLM-13, 168 h, MOLM-13 cells
How it was run: as §1

MV4-11 = experiment: Cell proliferation inhibition (CellTiter-Glo), MV4-11; type: cell-based; conditions: Homo sapiens, MV4-11, 72 h, MV4-11 cells
How it was run: as §1

AUC(0-t) [1]	half-life [1]	Cmax [1]	F, % [1]	half-life at 1 μM [2]	GI50 (OCI-AML3)	GI50 (MOLM-13)	GI50 (MV4-11)	SMILES
6410 ng·h/mL	1.17 h	3030 ng/mL	60%	> 2 h	82.5 nM	154 nM	56.6 nM	CC(C)N(C(=O)c1cc(F)ccc1Oc1nncnc1N1CC2(CCN(CC3CC4CCC3CC43CCC(=O)N3)CC2)C1)C(C)C (single isomer, unassigned) [Example 15-1a]
3220 ng·h/mL	1.12 h	2120 ng/mL	56%	> 2 h	14.2 nM	7.9 nM	13.8 nM	CCN(C(=O)c1cc(F)ccc1Oc1cncnc1N1CC2(CCN(C[C@H]3CC[C@]4(CC3)CC(COC)(COC)C(=O)N4)CC2)C1)C(C)C [Example 17]
2180 ng·h/mL	1.88 h	919 ng/mL	84%	> 2 h	35.2 nM	36.1 nM	14.2 nM	COCC1(COC)C[C@]2(CC[C@@H](CN3CCC4(CC3)CN(c3ncnnc3Oc3ccc(F)cc3C(=O)N(C(C)C)C(C)C)C4)CC2)NC1=O [Example 20]
5060 ng·h/mL	1.06 h	2260 ng/mL	67%	> 2 h	115 nM	194 nM	53.8 nM	COC[C@H]1C[C@]2(CC[C@@H](CN3CCC4(CC3)CN(c3ncnnc3Oc3ccc(F)cc3C(=O)N(C(C)C)C(C)C)C4)CC2)NC1=O [Example 38-1]
1980 ng·h/mL	0.83 h	824 ng/mL	55%	1.64 h	21.8 nM	23.3 nM	13.1 nM	COC[C@@H]1C[C@]2(CC[C@@H](CN3CCC4(CC3)CN(c3ncnnc3Oc3ccc(F)cc3C(=O)N(C(C)C)C(C)C)C4)CC2)NC1=O [Example 38-2]
